According to patent publication US20240099997A1, “METALLOENZYME MODULATORS” (Regents of the University of Minnesota, priority 2022, published 2024):

Target: T1, horse heart myoglobin (Mb) (Equus caballus, UniProt P68082)
T1 construct: Lyophilized horse heart Mb, human Hb, equine heart cytochrome c were in their ferric form when dissolved in buffer; purchased Sigma M1882; host or cells: horse heart
Test: UV-Vis spectrophotometric ligand affinity study, myoglobin
Settings: ferric horse heart Mb, PBS pH 7.4, Soret shift 409 to 422 nm; read-out: Kd (binding affinity to ferric Mb heme)
Protocol: UV-Vis spectrophotometric ligand affinity studies for ferric and ferrous-oxy heme proteins were performed using a Cary4000 UV-Vis spectrophotometer. These studies were performed in an aerobic environment. Lyophilized horse heart Mb, human Hb, equine heart cytochrome c were in their ferric form when dissolved in buffer. DosS GAF-A was purified in its ferric form. Ferrous-oxy forms of Mb and hemoglobin (Hb) were prepared by addition of a small aliquot of sodium dithionite to the proteins (in air) and running the protein through PD-10 columns twice to remove excess dithionite/other products. […] The protein concentration was set to ˜1 μM to obtain a desirable absorbance reading at the Soret peak region. […] For those fragments with some intrinsic absorbance in the aforementioned region, a second titration was performed with the same conditions, but without protein. […]
UV-Vis spectrophotometric ligand affinity studies for ferrous heme proteins were performed using a Cary 60 UV-Vis spectrophotometer. […] The sum of the maximal and minimal differences in absorbance was plotted for each concentration point for each ligand. […]
where Y is the observed change in absorbance, A is the maximum change in absorbance, Kd is the dissociation constant of the ligand, L is the ligand concentration and P is the protein concentration. The maximal change in absorbance, A, is obtained through nonlinear regression. […]

T1 sequence (P68082 whole entry): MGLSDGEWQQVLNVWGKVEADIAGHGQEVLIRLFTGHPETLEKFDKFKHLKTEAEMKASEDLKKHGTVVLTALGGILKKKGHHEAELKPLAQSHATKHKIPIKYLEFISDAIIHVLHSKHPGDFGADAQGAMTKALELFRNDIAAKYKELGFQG

N#CN1CCSCC1 [HT-N1, thiomorpholine N-carbonitrile]
Kd: 2570 ± 328 µM
